Experimental data published in BindingDB's records for patent US11945784 (Cornell University, 2024).

Target: Serine/threonine-protein kinase/endoribonuclease IRE1 (Homo sapiens, UniProt O75460)
Test: In Vitro FRET Assay
Procedure: In vitro FRET assay was performed to evaluate the ability of select compounds to inhibit IRE1, the results of which are summarized in Table 3. To perform the in vitro FRET assay, 1× complete assay buffer (CAB; […], 50 mM sodium citrate pH 7.15, 1 mM magnesium acetate, 0.02% tween 20) was used to dilute SignalChem IRE1α protein to a final concentration of 2 nM. Selected compounds were serially diluted with DMSO in a non-binding black 384-well plate for a total of 15 ul in each well. 2 ul of the serially diluted compound or DMSO control were then added to new wells containing 98 ul of 1×CAB, for a total volume of 100 ul, 10 ul of which were then transferred to wells of a new plate. 5 ul of the diluted IRE1α was then added to each well. 5 ul of a […] was then added to each well. Fluorescence was then read over 30 minutes in kinetic mode (485/515 nm).Two RNA probes were used, XBP1 wildtype (SEQ ID NO: 2) which is able to be spliced by active IRE1α or XBP1 mutant (SEQ ID NO: 3) which is unable to be spliced. Each probe contained a 5′ 6-FAM modification and a 3′ IOWA Black FQ modification.A second FRET assay was performed to assess ATP-mediated inhibition. In this case, compounds and IRE1α were prepared and combined as discussed above, with the addition of ATP up to 1 mM final concentration. This mixture was incubated at room temperature for 60 minutes and then 5 ul of 400 nM XBP1 wildtype or mutant RNA probe was added. Plates were then read over 30 minutes in kinetic mode (485/515 nm) and rate of fluorescence increase calculated for different compound dilutions to determine IC50.

Serine/threonine-protein kinase/endoribonuclease IRE1, sequence (O75460 whole entry): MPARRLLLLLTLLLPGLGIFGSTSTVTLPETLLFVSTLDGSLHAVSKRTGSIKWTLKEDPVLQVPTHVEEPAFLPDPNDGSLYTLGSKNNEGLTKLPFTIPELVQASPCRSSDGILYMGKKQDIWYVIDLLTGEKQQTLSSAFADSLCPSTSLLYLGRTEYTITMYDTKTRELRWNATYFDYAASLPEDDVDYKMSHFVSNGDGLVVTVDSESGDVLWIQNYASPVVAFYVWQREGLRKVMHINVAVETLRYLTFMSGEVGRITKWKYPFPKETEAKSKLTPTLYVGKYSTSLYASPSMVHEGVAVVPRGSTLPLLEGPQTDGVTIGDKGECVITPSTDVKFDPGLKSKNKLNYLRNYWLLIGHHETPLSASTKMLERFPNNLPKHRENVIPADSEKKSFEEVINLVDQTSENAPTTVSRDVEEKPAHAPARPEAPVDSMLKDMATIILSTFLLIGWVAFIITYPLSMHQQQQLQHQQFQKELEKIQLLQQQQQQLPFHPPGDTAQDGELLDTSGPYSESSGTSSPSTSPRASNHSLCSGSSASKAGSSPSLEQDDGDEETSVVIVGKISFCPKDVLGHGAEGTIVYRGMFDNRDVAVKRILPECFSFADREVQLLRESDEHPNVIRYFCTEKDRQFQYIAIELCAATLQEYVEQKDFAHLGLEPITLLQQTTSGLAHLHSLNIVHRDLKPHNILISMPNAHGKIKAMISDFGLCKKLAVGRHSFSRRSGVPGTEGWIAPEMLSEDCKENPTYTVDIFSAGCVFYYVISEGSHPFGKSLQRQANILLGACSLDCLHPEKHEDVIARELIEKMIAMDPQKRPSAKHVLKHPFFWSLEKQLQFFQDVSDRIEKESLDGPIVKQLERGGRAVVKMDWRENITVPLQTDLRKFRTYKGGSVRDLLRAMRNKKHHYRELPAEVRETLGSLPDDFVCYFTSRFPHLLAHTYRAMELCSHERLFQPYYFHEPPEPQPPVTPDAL

Row | Compound | IC50 [nM]
1 | NC1CCC(Nc2ncc(/C=C/c3ccc(NS(=O)(=O)c4ccccc4Cl)nn3)cn2)CC1 (configuration not stated) [US11945784, Compound 2] | < 1
2 | NC1CCC(Nc2ncc(/C=C/c3ccc(NS(=O)(=O)c4ccccc4Cl)c(F)c3)cn2)CC1 (configuration not stated) [US11945784, Compound 3] | < 1
3 | CN(C)C1CCC(Nc2ncc(/C=C/c3ccc(NS(=O)(=O)c4ccccc4Cl)nn3)cn2)CC1 (configuration not stated) [US11945784, Compound 52] | < 1
4 | COc1nc(NS(=O)(=O)c2ccccc2Cl)c(F)cc1/C=C/c1cnc(NC2CCC(N)CC2)nc1 (configuration not stated) [US11945784, Compound 54] | < 1
5 | COc1nc(NS(=O)(=O)c2cnccc2Cl)ccc1/C=C/c1cnc(NC2CCC(N(C)C)CC2)nc1 (configuration not stated) [US11945784, Compound 56] | < 1
6 | COc1nc(NS(=O)(=O)c2ccccc2Cl)ccc1/C=C/c1cnc(NC2CCC(N3CCOCC3)CC2)nc1 (configuration not stated) [US11945784, Compound 57] | < 1
7 | Cc1nc(NS(=O)(=O)c2ccccc2Cl)c(F)cc1/C=C/c1cnc(NC2CCC(N)CC2)nc1 (configuration not stated) [US11945784, Compound 58] | < 1
8 | CNC1CCC(Nc2ncc(/C=C/c3cc(F)c(NS(=O)(=O)c4ccccc4Cl)nc3OC)cn2)CC1 (configuration not stated) [US11945784, Compound 59] | < 1
9 | COc1nc(NS(=O)(=O)c2ccccc2Cl)ccc1/C=C/c1cnc(NC2CCC(N3CCCCC3)CC2)nc1 (configuration not stated) [US11945784, Compound 60] | < 1
10 | CN(C)C1CCC(Nc2ncc(/C=C/c3ccc(NS(=O)(=O)c4ccc(F)cc4Cl)nc3)cn2)CC1 (configuration not stated) [US11945784, Compound 61] | < 1
11 | Cc1nc(NS(=O)(=O)c2cnccc2Cl)ccc1/C=C/c1cnc(NC2CCC(N(C)C)CC2)nc1 (configuration not stated) [US11945784, Compound 62] | < 1
12 | CN(C)C1CCC(Nc2ncc(/C=C/c3ccc(NS(=O)(=O)c4cccc(Cl)c4Cl)nc3)cn2)CC1 (configuration not stated) [US11945784, Compound 63] | < 1
13 | COc1nc(NS(=O)(=O)c2ccccc2Cl)ccc1/C=C/c1cnc(NC2CCC(N3CCSCC3)CC2)nc1 (configuration not stated) [US11945784, Compound 64] | < 1
14 | COc1cc(NS(=O)(=O)c2cnccc2Cl)ccc1/C=C/c1cnc(NC2CCC(N(C)C)CC2)nc1 (configuration not stated) [US11945784, Compound 65] | < 1
15 | COc1c(/C=C/c2cnc(NC3CCC(N(C)C)CC3)nc2)ccc(NS(=O)(=O)c2ccccc2Cl)c1F (configuration not stated) [US11945784, Compound 66] | < 1
16 | COc1cc(NS(=O)(=O)c2ccccc2Cl)c(F)cc1/C=C/c1cnc(NC2CCC(N(C)C)CC2)nc1 (configuration not stated) [US11945784, Compound 67] | < 1
17 | CN(C)C1CCC(Nc2ncc(/C=C/c3ccc(NS(=O)(=O)c4cccc(F)c4Cl)nc3)cn2)CC1 (configuration not stated) [US11945784, Compound 68] | < 1
